According to patent US6589755B1, “Assay for quantifying arthritic conditions” (Novartis AG, priority 1996, dated 2003):

Test system: LMW-COMP fragment
Assay: LMW-COMP fragments in synovial fluid of treated arthritis patients
Type: in vivo, human
Details: strong anti-arthritic compound
Protocol: Twenty microliters of human synovial fluids were mixed 1:1 with SDS-PAGE loading buffer (NOVEX, San Diego, Calif.) containing 10% mercaptoethanol. The samples were boiled for 4 min. and […] applied per lane on a 14% or a 4-12% gradient SDS-PAGE Tris-Gly gel (Novex, Calif.). A separate set of these samples was also prepared for analysis under non-reducing conditions. Molecular weight markers were used to localize the molecular weight of unknowns. After electrophoresis, the samples were electrophoretically transferred onto a nitro-cellulose paper. The paper was treated with 2% bovine serum albumin (BSA) in 10 mM sodium phosphate, 0.15 M NaCl at […] (PBS) for 18 hours at 4° C.
The nitrocelluose paper was rinsed with PBS (10 mM sodium phosphate, 0.15 M NaCl at pH 7.2). […] The bound antibody was then detected using ECL or ECF substrate (Amersham Co.). The fragments were quantified using a Molecular Dynamics densitometer (Sunnyvale, Calif.). […]
A 96-well microtiter plate was coated with 0.1 ml/well of 50 ng/ml of antigen (synthetic peptide H741 without the N-terminal cysteine) in PBS for 48 to 72 h at 4° C. […] After 1 h at RT, the plate was washed 3-times with the ELISA wash buffer and the bound antibody detected by adding 100 μl/well of p-nitrophenyl phosphate substrate solution (Sigma, St. Louis, Mo.) and measuring optical density (OD) at 405 nm. […]

CN(Cc1cnc2nc(N)nc(N)c2n1)c1ccc(C(=O)N[C@@H](CCC(=O)O)C(=O)O)cc1 [methotrexate]
LMW-COMP fragment produced under treatment: less

CN1C(C(=O)Nc2ccccn2)=C(O)c2ccccc2S1(=O)=O [piroxicam]
LMW-COMP fragment produced under treatment: less
